As a reminder, the EC50 is the concentration needed to bring the measured effect to its halfway point. The low end stands for an effect from little substance, the high end for a need for much substance.

The structures appear in SMILES notation. Where a name gives a salt, the structure may show the parent alone.

This experiment deals with Human peripheral blood mononuclear cells (PBMC). The experiment is described as follows: PBMC screening assay, TNF-α in supernatant. Format: cell-based. As to conditions: TNF-α in supernatant of human PBMC, 24 hours, ELISA or HTRF. The procedure:
Human peripheral blood mononuclear cells (PBMC) were obtained from BenTek, frozen at 25×10^6 cell/mL in 10% DMSO (Sigma) prepared in fetal bovine serum (Gibco) and stored in liquid nitrogen. For culture PBMC were thawed quickly in a 37° C. water bath and diluted into pre-warmed RPMI 1640 (Lonza) supplemented with 10% fetal bovine serum, 2 mM glutamine, 50 μg/mL penicillin, 50 U/mL streptomycin (all from Gibco) and centrifuged for 5 minutes at 500×g. PBMC were suspended into the growth media described above and cultured at a concentration of 1×10^6 cells per mL at 37° C. in a 5% CO2 incubator.
PBMC were thawed, suspended at a concentration of 1×10^6 cell/mL in growth media and 200 μL was aliquoted into each well of a 96-well plate for a total of 0.2×10^6 cells per well. PBMC were incubated for 16-18 hours at 37° C. in a 5% CO2 humidified incubator. The following day PBMC plates were centrifuged at 500×g for 5 minutes and the growth media was removed. 150 μL of twelve concentrations ranging from 1000 to 0.000238 nM of small molecules prepared in growth media were added to PBMC in duplicate and incubated for 24 hours at 37° C. in a 5% CO2 incubator. Prior to supernatant harvest, cells were spun at 500×g for 5 minutes to remove cell debris. TNF-α activity was assessed in the supernatant by ELISA (eBioscience) or HTRF (CisBio) per the manufacturer's instructions. Optical density at 450 nm and 570 nm (ELISA) or luminescence (HTRF) was analyzed using an Envision (Perkin Elmer) plate reader, as shown in Table 5.
For orientation: In an ELISA, binding on a coated surface is turned into a signal by an enzyme label.
With `CCCN(CCC)C(=O)C1=Cc2ccc(C(=O)Nc3cncc(CNC(=O)[C@H](N)Cc4ccccc4)c3)cc2N=C(N)C1` [Compound 1.36, (R)-2-amino-N^8-(5-((2-amino-3-phenyl-propanamido)-methyl)pyridine-3-yl)-N^4,N^4-dipropyl-3H-benzo[b]azepine-4,8-dicarboxamide], the EC50 is less than 500 nM.

For `CCCN(CCC)C(=O)C1=Cc2ccc(C(=O)Nc3ccc4c(c3)CCCN4)cc2N=C(N)C1` [Compound 1.12, 2-amino-N^4,N^4-dipropyl-N^8-(1,2,3,4-tetrahydroquinolin-6-yl)-3H-benzo[b]azepine-4,8-dicarboxamide trifluoroacetate salt], the concentration giving a half-maximal response (EC50) is less than 500 nM.

`CCCN(CCC)C(=O)C1=Cc2ccc(C(=O)N3CCc4ccccc4C3)cc2N=C(N)C1` [Compound 1.24, 2-amino-N,N-dipropyl-8-(1,2,3,4-tetrahydroisoquinoline-2-carbonyl)-3H-benzo[b]azepine-4-carboxamide trifluoroacetate salt] gave an EC50 of less than 500 nM.

For the compound `CCCN(CCC)C(=O)C1=Cc2ccc(C(=O)NCC3OB(O)c4cc(NC(=O)OCc5ccccc5)ccc43)cc2N=C(N)C1` (stereo not drawn) [Compound 1.49, benzyl (3-((2-amino-4-(dipropylcarbamoyl)-3H-benzo[b]azepine-8-carboxamido)methyl)-1-hydroxy-1,3-dihydrobenzo[c][1,2]oxaborol-6-yl)carbamate TFA salt], the EC50 was 500 to 1000 nM.

`CCCN(CCC)C(=O)C1=Cc2ccc(C(=O)Nc3cncc(CNC(=O)CC(N)c4ccccc4)c3)cc2N=C(N)C1` (stereo not drawn) [Compound 1.38, 2-amino-N^8-(5-((3-amino-3-phenyl-propanamido)methyl)-pyridin-3-yl)-N^4,N^4-dipropyl-3H-benzo[b]azepine-4,8-dicarboxamide] yielded an EC50 of less than 500 nM.

Regarding `CCCN(CCC)C(=O)C1=Cc2ccc(C(=O)NC3CCc4ccccc43)cc2N=C(N)C1` (stereo not drawn) [Compound 1.23, 2-amino-N^8-(2,3-dihydro-1H-inden-1-yl)-N^4,N^4-dipropyl-3H-benzo[b]azepine-4,8-dicarboxamide trifluoroacetate salt], the EC50 was less than 500 nM.

For the compound `CCCN(CCC)C(=O)C1=Cc2ccc(C(=O)Nc3ccc4c(c3)CCN(C(=O)OCc3ccccc3)C4)cc2N=C(N)C1` [Compound 1.29, benzyl 6-(2-amino-4-(dipropylcarbamoyl)-3H-benzo[b]azepine-8-carboxamido)-3,4-dihydroisoquinoline-2(1H)-carboxylate], the EC50 is less than 500 nM.

As for `CCCN(CCC)C(=O)C1=Cc2ccc(C(=O)Nc3ccc4c(c3)CNCC4)cc2N=C(N)C1` [Compound 1.14, 2-amino-N^4,N^4-dipropyl-N^8-(1,2,3,4-tetrahydro-isoquinolin-7-yl)-3H-benzo[b]azepine-4,8-dicarboxamide trifluoroacetate salt], the EC50 is less than 500 nM.

As for `CCCN(CCC)C(=O)C1=Cc2ccc(C(=O)Nc3cncc(CNC(=O)C4CCc5ccccc5N4)c3)cc2N=C(N)C1` (stereo not drawn) [Compound 1.33, 2-amino-N^4,N^4-dipropyl-N^8-(5-((1,2,3,4-tetrahydroquinoline-2-carboxamido)methyl)pyridin-yl)-3H-benzo[b]azepine-4,8-dicarboxamide], the EC50 was less than 500 nM.

On to `CCCN(CCC)C(=O)C1=Cc2ccc(C(=O)NCC3OB(O)c4ccccc43)cc2N=C(N)C1` (stereo not drawn) [Compound 1.47, 2-amino-N^8-((1-hydroxy-1,3-dihydro-benzo[c][1,2]oxaborol-3-yl)methyl)-N4,N4-dipropyl-3H-benzo[b]azepine-4,8-dicarboxamide], for which the EC50 lay within 500 to 1000 nM.

With `CCCN(CCC)C(=O)C1=Cc2ccc(C(=O)Nc3ccc(N4CCCC(N)C4)nc3)cc2N=C(N)C1` (stereo not drawn) [Compound 1.56, 2-amino-N^8-(6-(3-aminopiperidin-1-yl)pyridin-3-yl)-N^4,N^4-dipropyl-3H-benzo[b]azepine-4,8-dicarboxamide], the EC50 was in the range of 1000 to 3000 nM.

The compound `CCCN(CCC)C(=O)C1=Cc2ccc(NC(=O)c3cccnc3)cc2N=C(N)C1` [Compound 1.62, 2-amino-8-(nicotinamido)-N,N-dipropyl-3H-benzo[b]azepine-4-carboxamide] displayed an EC50 of 500 to 1000 nM.

As to `CCCN(CCC)C(=O)C1=Cc2ccc(C(=O)Nc3cnc4c(c3)C(N)CCC4)cc2N=C(N)C1` (stereo not drawn) [Compound 1.39, 2-amino-N^8-(5-amino-5,6,7,8-tetrahydro-quinolin-3-yl)-N^4,N^4-dipropyl-3H-benzo-[b]azepine-4,8-dicarbox-amide], the 50% effective concentration (EC50) was less than 500 nM.

Consider `CCCN(CCC)C(=O)C1=Cc2ccc(C(=O)Nc3cncc(CNC(=O)[C@@H](N)C(C)C)c3)cc2N=C(N)C1` [Compound 1.51, (S)-2-amino-N^8-(5-((2-amino-3-methylbutanamido)methyl)pyridin-3-yl)-N^4,N^4-dipropyl-3H-benzo[b]azepine-4,8-dicarboxamide], for which the EC50 is 1000 to 3000 nM.

Consider `CCCN(CCC)C(=O)C1=Cc2ccc(C(=O)Nc3cncc(C4CCNC4)c3)cc2N=C(N)C1` (stereo not drawn) [Compound 1.58, 2-amino-N^4,N^4-dipropyl-N^8-(5-(pyrrolidin-3-yl)pyridin-3-yl)-3H-benzo[b]azepine-4,8-dicarboxamide], for which the EC50 lay in the range of 500 to 1000 nM.

`CCCN(CCC)C(=O)C1=Cc2ccc(C(=O)Nc3ccc4c(c3)C(O)CCC4)cc2N=C(N)C1` (stereo not drawn) [Compound 1.7, 2-amino-N^8-(8-hydroxy-5,6,7,8-tetrahydronaphthalen-2-yl)-N4,N4-dipropyl-3H-benzo[b]azepine-4,8-dicarboxamide trifluoroacetate salt] came in with an EC50 of less than 500 nM.

In the case of `CCCN(CCC)C(=O)C1=Cc2ccc(C(=O)N[C@@H](C)c3ccccc3)cc2N=C(N)C1` [Compound 1.21, (S)-2-amino-N^8-(1-phenylethyl)-N^4,N^4-dipropyl-3H-benzo[b]azepine-4,8-dicarboxamide trifluoroacetate salt], the EC50 was less than 500 nM.

Turning to `CCCN(CCC)C(=O)C1=Cc2ccc(C(=O)Nc3ccc4c(c3)C(=O)CCC4)cc2N=C(N)C1` [Compound 1.4, 2-amino-N^8-(8-oxo-5,6,7,8-tetrahydronaphthalen-2-yl)-N^4,N^4-dipropyl-3H-benzo[b]azepine-4,8-dicarboxamide trifluoroacetate salt], the EC50 is less than 500 nM.

`CCCN(CCC)C(=O)C1=Cc2ccc(C(=O)Nc3cncc(CNC(=O)C4Cc5ccccc5CN4)c3)cc2N=C(N)C1` (stereo not drawn) [Compound 1.34, 2-amino-N^4,N^4-dipropyl-N^8-(5-((1,2,3,4-tetrahyroisoquinoline-3-carboxamido)-methyl)pyridin-3-yl)-3H-benzo[b]azepine-4,8-dicarboxamide] yielded an EC50 of less than 500 nM.

As for `CCCN(CCC)C(=O)C1=Cc2ccc(C(=O)Nc3ccc(N4CCC(N)CC4)nc3)cc2N=C(N)C1` [Compound 1.57, 2-amino-N^8-(6-(4-aminopiperidin-1-yl)pyridin-3-yl)-N^4,N^4-dipropyl-3H-benzo[b]azepine-4,8-dicarboxamide tris HCl salt], the 50% effective concentration (EC50) was less than 500 nM.

`CCCN(CCC)C(=O)C1=Cc2ccc(C(=O)Nc3cccc(C(=O)NCCNC(=O)OCc4ccccc4)c3)cc2N=C(N)C1` [Compound 1.27, benzyl (2-(3-(2-amino-4-(dipropylcarbamoyl)-3H-benzo[b]azepine-8-carboxamido)benzamido)ethyl)carbamate] had an EC50 of less than 500 nM.

Compound `CCCN(CCC)C(=O)C1=Cc2ccc(C(=O)Nc3cncc(CNC(=O)NCc4ccccc4)c3)cc2N=C(N)C1` [Compound 1.32, 2-amino-N^8-(5-((3-benzylureido)methyl)pyridin-3-yl)-N^4,N^4-dipropyl-3H-benzo[b]azepine-4,8-dicarboxamide bis TFA salt] came in with an EC50 of less than 500 nM.

As for `CCCN(CCC)C(=O)C1=Cc2ccc(C(=O)Nc3cncc(CNC(=O)[C@@H](N)Cc4ccccc4)c3)cc2N=C(N)C1` [Compound 1.35, (S)-2-amino-N^8-(5-((2-amino-3-phenylpropanamido)methyl)pyridin-3-yl)-N^4,N^4-dipropyl-3H-benzo[b]azepine-4,8-dicarboxamide], the EC50 is less than 500 nM.

Take `CCCN(CCC)C(=O)C1=Cc2ccc(C(=O)Nc3cnc4c(c3)CN(Cc3ccccc3)CC4)cc2N=C(N)C1` [Compound 1.48, 2-amino-N^8-(6-benzyl-5,6,7,8-tetrahydro-1,6-naphthyridin-3-yl)-N^4,N^4-dipropyl-3H-benzo[b]azepine-4,8-dicarboxamide]: the EC50 was less than 500 nM.

`CCCN(CCC)C(=O)C1=Cc2ccc(C(=O)Nc3cccc(CNC(=O)CCc4ccccc4)c3)cc2N=C(N)C1` [Compound 1.31, 2-amino-N^8-(3-((3-phenylpropanamido)methyl)phenyl)-N^4,N^4-dipropyl-3H-benzo[b]azepine-4,8-dicarboxamide bis TFA salt]: the EC50 was less than 500 nM.

Compound `CCCN(CCC)C(=O)C1=Cc2ccc(C(=O)Nc3cccc(C(C)=O)c3)cc2N=C(N)C1` [Compound 1.2, N^8-(3-acetylphenyl)-2-amino-N^4,N^4-dipropyl-3H-benzo[b]azepine-4,8-dicarboxamide] had an EC50 of less than 500 nM.

Consider `CCCN(CCC)C(=O)C1=Cc2ccc(C(=O)N[C@H]3C[C@@H]3c3ccccc3)cc2N=C(N)C1` [Compound 1.28, 2-amino-N^8-((1S,2R)-2-phenylcyclopropyl)-N^4,N^4-dipropyl-3H-benzo[b]azepine-4,8-dicarboxamide trifluoroacetate salt], for which the EC50 is less than 500 nM.

The values are drawn from patent publication US10428045B2, “Benzazepine compounds, conjugates, and uses thereof” (Silverback Therapeutics, Inc., priority 2017, dated 2019).
